According to paper PMC9687798, “Atypical Substrates of the Organic Cation Transporter 1” (Biomolecules, 2022):
Positions count from the first letter of the chain named.

Key:
OCT1*3 (R61C) = target: T1, OCT1*3 (R61C) (Homo sapiens, UniProt O15245, R61C); assay: Cellular uptake by HEK293 cells overexpressing OCT1*3; format: cell-based; settings: for uptake by OCT1*3 in comparison to OCT1*1: 1 µM substance; for uptake of prostaglandins by OCT1*3 in comparison to wild-type: 1, 10 and 100 µM, 120 s
T1 construct: expressed in transfected cells
T1 sequence (O15245 1-554 R61C): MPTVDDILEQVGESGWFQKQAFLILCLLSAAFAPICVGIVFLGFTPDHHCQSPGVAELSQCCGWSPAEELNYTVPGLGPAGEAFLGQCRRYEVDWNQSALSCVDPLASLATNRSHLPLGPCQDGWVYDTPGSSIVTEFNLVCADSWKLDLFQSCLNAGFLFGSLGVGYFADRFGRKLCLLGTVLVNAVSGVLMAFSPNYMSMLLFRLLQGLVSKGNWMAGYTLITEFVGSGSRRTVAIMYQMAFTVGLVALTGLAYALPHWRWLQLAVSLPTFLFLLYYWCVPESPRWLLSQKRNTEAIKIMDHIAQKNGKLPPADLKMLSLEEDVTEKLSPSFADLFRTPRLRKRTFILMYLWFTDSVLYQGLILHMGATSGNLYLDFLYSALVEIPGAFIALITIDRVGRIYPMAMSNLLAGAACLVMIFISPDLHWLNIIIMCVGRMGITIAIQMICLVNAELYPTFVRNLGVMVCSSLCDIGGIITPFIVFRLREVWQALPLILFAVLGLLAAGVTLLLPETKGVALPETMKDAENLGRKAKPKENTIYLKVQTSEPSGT
Description: The transport experiments were performed using HEK293 cells that overexpress human OCT1*1 (wild-type), mutant human OCT1 D474N, variant human OCT1*2 (M420del) and OCT1*3 (R61C), wild-type human OCT2, and OCT3 after stable transfection. The wild-type cell lines of OCT1 and OCT2, as well as the variant cell lines OCT1*2 and *3, were generated using the Flp-In system (Thermo Fisher Scientific, Darmstadt, Germany) as described in previous publications. The cell line overexpressing OCT3 was a kind gift from Dr. Koepsell and Dr. Gorbulev (University of Würzburg, Germany). Cells transfected with the empty pcDNA5/FRT vector were used for the transport experiments as a control cell line. All cells were cultured approximately up to passage 30.
Forty-eight hours before the transport experiments, 600,000 cells were plated on 12-well plates pre-coated with poly-D-lysine and incubated at 37 °C with 5% CO2. The prepared 12-well plate with cells was positioned on a heating plate pre-warmed to 37 °C. After removing the medium, the cells were washed with 37 °C HBSS+ (10 mM HEPES in Hank’s balanced salt solution, pH 7.4). Then, one pre-defined concentration of a substrate was added to each well. The incubation period was stopped by adding 2 mL of 4 °C HBSS+ and removing the cells from the heating plate. The cells were washed twice with 4 °C HBSS+. For cell lysis, the cells were incubated for 15 min with 500 µL of 80% acetonitrile (LGC Standards, Wesel, Germany), which contained a respective internal standard (Table 1).
For time-dependent transport, the cells were incubated with 1 µM of the substance for 15 to 240 s to determine the linear uptake range ≥ 15 s. For concentration-dependent transport, the cells were incubated with defined substrate concentrations (0.1, 1, 10, 30, 100, 300, 600, 1000 µM) for the respective pre-defined incubation times. […]; 100 µM) and pre-defined incubation times. The uptake by a transporter was normalised to the uptake by empty vector-transfected cells. […] The results of transport experiments were normalized to the total protein concentration per well. Total protein quantification was performed using a bicinchoninic acid assay with bovine serum albumin as standard.
The ratios of cellular uptake were calculated by dividing the total uptake of transporter-overexpressing cells by the total uptake into empty vector transfected cells. The concentration-dependent cellular net uptake was used for analysis of transport kinetics by subtracting for each substrate concentration the uptake of empty vector-transfected cells from the uptake of transporter-overexpressing cells. The transport kinetic parameters Vmax and KM were determined with non-linear regression by using the Michaelis–Menten equation for net uptake data and by using the Michaelis–Menten equation extended with a linear term for total uptake data (GraphPad Prism 5.01, GraphPad software, LA Jolla, CA, USA). The intrinsic clearance Clint was expressed with the ratio of Vmax and KM.

human OCT1*1 (wild-type) = target: T2, human OCT1*1 (wild-type) (Homo sapiens, UniProt O15245); assay: Cellular uptake ratio, OCT1-overexpressing HEK293 cells vs empty vector; format: cell-based
T2 sequence (O15245 1-554): T1 sequence (O15245 1-554 R61C) with C61R
How it was run: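 Flp-In HEK293 cells stably expressing transporter, or empty pcDNA5/FRT vector as control, incubated at 37 °C in HBSS with 10 mM HEPES, pH 7.4, with substrate. Uptake quantified by LC-MS with internal standard and normalised to total protein. Ratio = total uptake in transporter cells divided by that in empty-vector cells.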

[1] = based on ratio uptake data at 1 µM
[2] = based on ratio uptake data at 100 µM (footnote *)

Row | uptake by OCT1*3 in comparison to OCT1*1 (OCT1*3 (R61C)) | SMILES | OCT1 transport category (human OCT1*1 (wild-type); [1]) | also measured
1 | reduction in uptake | COc1cc(Cc2cnc(N)nc2N)cc(OC)c1OC [Trimethoprim, trimethoprim] | + (good substrates of OCTs when the intrinsic clearance is between 5–15 or the ratio is 2–10) | –
2 | to a small extent | N=C(N)c1ccc(OCCCCCOc2ccc(C(=N)N)cc2)cc1 [Pentamidine, pentamidine] | +/− (poor transport with a Clint < 5 or ratio between 1–2 with statistical significance (p < 0.05)) | –
3 | reduction in uptake | Nc1nc(=O)n([C@@H]2CS[C@H](CO)O2)cc1F [Emtricitabine, emtricitabine] | – | uptake ratio by OCT1 (normalised to empty vector) (human OCT1*1 (wild-type); 1 µM and 100 µM substance): around 4
4 | – | N[C@@H](Cc1ccc(O)c(O)c1)C(=O)O [Levodopa, levodopa] | 0 (no transport by OCT1, OCT2, and OCT3 occurred (i.e., no kinetic parameters or uptake ratio <2 without significance)) | –
5 | – | CCCCC[C@H](O)/C=C/[C@H]1[C@H](O)CC(=O)[C@@H]1C/C=C\CCCC(=O)O [Prostaglandin E2, prostaglandin E2] | – | uptake of prostaglandins by OCT1*3 in comparison to wild-type (OCT1*3 (R61C)): reduced to the level of the control cell line; uptake ratio of prostaglandins by OCT1 wild-type (human OCT1*1 (wild-type); 1, 10 and 100 µM, 120 s): strongly increased uptake by OCT1 at higher concentrations; OCT1 transport category (human OCT1*1 (wild-type); [2]): + (good substrates of OCTs when the intrinsic clearance is between 5–15 or the ratio is 2–10)
6 | reduction in uptake | Nc1ccn([C@H]2CC[C@@H](CO)O2)c(=O)n1 [Zalcitabine, zalcitabine] | + (good substrates of OCTs when the intrinsic clearance is between 5–15 or the ratio is 2–10) | –
7 | – | CCCCC[C@H](O)/C=C/[C@@H]1[C@@H](C/C=C\CCCC(=O)O)[C@@H](O)C[C@H]1O [Prostaglandin F2α, prostaglandin F2α] | – | uptake of prostaglandins by OCT1*3 in comparison to wild-type (OCT1*3 (R61C)): reduced to the level of the control cell line; OCT1 transport category (human OCT1*1 (wild-type); [2]): + (good substrates of OCTs when the intrinsic clearance is between 5–15 or the ratio is 2–10)
